Experiments:
αvβ3 = αvβ3 (Homo sapiens, UniProt P05106+P06756); settings: cited from earlier work
Cem/C1 T-cells = test: Transwell migration of Cem/C1 T-cells through collagen type-IV; assay type: cell-based; settings: peptide, SDF-1
Method: FIGS. 4A-4H. […] Briefly, membranes from transwell migration chambers were coated with either native collagen type-IV or denatured collagen type-IV. T-cell variants were incubated with non-specific control peptide CP, or the RGDKGE (SEQ ID NO: 1)-containing collagen peptide (P2) and seed on the coated transwell membranes. T-cells were allowed to migrate in the presence or absence of SDF-1 added to the lower chamber for approximately 1.5 hours. Cell migration was quantified by counting the number of crystal violet stained cells that had migrated through to the underside of the coated membrane. FIG. 4A. Jurkat T-cell migration through denatured collagen type-IV in the presence of non-specific control peptide CP or RGDKGE (SEQ ID NO: 1)-containing collagen peptide P2 with SDF-1. FIG. 4B. […]
Given our new observations, and the fact that many tumor types as well as immunosuppressive macrophages can secrete the small soluble RGDKGE (SEQ ID NO: 1) collagen peptide, we next sought to determine whether this soluble collagen peptide could impact T-cell migration through denatured collagen type-IV, a critical ECM component shown to be selectively enriched in tumor vessels. […] Cell migration was quantified following staining cells with crystal violet (6,8). […]

[1] = test system: primary murine CD4+ Treg cells; test: Migration of primary CD4+ Treg cells on denatured collagen type-IV; assay type: cell-based; settings: Treg from spleens of B16F10 tumor bearing mice, compared to CP
Method: Briefly, mice (C57BL/6) were injected subcutaneously with B16F10 cells. B16F10 tumors were allowed to grow for 14-days to allow formation of solid malignant melanomas. Spleens from tumor bearing mice were dissected and primary murine CD4+ Treg cells were isolated and analyzed for the effects of the soluble collagen peptide (P2) or control peptide (CP) on cell migration on denatured collagen type-IV. Data bars represent mean CD4+ Treg cell migration+SE from 3 wells per condition.
Given our surprising finding that CD4+ Treg cell migration is enhanced on denatured collagen-IV as compared to native collagen-IV, we next tested whether CD4+ Treg cell migration through denatured collagen-IV is altered by endogenously generated soluble RGDKGE (SEQ ID NO: 1) collagen peptide P2. For these experiments, mice (C57BL/6) were injected subcutaneously with B16F10 cells. B16F10 tumors were allowed to grow for 14-days to allow formation of solid malignant melanomas. Spleens from tumor bearing mice were dissected and primary murine CD4+ Treg cells were isolated and analyzed for the effects of the soluble collagen peptide (P2) or control peptide (CP) on cell migration on denatured collagen type-IV. […]

Sequence of αvβ3 (P06756 31-889 limits assumed): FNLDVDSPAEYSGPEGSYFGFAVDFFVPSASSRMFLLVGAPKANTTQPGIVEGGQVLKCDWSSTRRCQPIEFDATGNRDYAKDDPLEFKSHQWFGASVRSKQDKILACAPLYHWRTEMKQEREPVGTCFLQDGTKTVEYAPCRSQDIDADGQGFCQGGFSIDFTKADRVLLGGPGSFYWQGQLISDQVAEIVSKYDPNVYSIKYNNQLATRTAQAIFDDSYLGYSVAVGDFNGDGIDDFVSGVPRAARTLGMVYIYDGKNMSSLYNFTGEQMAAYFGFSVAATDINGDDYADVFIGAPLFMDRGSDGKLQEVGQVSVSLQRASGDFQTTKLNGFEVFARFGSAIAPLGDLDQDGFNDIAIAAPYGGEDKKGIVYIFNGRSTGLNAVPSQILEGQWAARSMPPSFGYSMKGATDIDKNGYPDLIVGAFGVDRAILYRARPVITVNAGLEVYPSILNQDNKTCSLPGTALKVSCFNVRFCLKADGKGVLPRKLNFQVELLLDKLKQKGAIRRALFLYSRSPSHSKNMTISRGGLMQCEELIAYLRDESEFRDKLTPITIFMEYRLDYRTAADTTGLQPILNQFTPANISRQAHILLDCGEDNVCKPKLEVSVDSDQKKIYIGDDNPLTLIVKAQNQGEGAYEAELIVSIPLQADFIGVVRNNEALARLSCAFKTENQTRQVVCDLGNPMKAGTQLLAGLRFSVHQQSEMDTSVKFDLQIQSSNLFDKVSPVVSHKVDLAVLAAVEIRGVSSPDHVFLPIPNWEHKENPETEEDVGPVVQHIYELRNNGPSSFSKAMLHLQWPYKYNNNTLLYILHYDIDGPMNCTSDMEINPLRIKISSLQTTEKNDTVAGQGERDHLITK
Sequence of αvβ3 (P06756 891-1048 partner limits assumed): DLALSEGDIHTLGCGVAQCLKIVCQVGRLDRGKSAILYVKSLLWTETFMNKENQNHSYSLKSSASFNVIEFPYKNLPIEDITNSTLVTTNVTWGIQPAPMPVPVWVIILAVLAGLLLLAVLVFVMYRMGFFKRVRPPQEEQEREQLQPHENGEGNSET
Sequence of αvβ3 (P05106 27-788): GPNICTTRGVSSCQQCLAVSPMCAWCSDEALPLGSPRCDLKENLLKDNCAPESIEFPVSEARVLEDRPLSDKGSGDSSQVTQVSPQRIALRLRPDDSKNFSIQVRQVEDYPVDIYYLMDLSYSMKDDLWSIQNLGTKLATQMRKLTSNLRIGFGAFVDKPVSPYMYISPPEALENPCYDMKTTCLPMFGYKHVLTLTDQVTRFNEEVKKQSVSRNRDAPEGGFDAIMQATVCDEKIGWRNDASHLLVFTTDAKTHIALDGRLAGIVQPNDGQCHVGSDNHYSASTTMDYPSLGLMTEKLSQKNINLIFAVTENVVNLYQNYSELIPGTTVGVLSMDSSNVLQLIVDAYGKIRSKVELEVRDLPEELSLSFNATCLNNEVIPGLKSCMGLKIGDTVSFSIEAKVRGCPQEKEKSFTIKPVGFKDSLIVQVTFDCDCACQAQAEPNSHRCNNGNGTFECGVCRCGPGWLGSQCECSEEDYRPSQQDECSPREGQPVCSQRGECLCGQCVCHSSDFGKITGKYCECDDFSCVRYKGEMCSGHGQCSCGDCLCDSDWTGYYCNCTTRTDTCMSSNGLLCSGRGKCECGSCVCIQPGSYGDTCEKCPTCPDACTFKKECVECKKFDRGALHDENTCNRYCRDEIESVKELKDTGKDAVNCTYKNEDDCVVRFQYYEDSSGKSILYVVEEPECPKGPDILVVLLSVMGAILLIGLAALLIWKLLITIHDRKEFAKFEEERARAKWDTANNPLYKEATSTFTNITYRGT

QGPRGDKGE (CQGPRGDKGEC; Synthetic: Synthetic collagen RGD containing peptide P-2) [Peptide P2, synthetic version of the soluble RGDKGE-containing collagen peptide]
binding to αvβ3 (αvβ3): bound
Cem/C1 T-cell migration (Cem/C1 T-cells; denatured collagen type-IV): selectively inhibited
Cem/C1 T-cell migration (Cem/C1 T-cells; native collagen type-IV): neither the soluble RGDKGE (SEQ ID NO: 1) collagen peptide P2, nor the non-specific control peptide had any significant effect
mean CD4+ Treg cell migration cell count [1]: significant increase
